{
  "source": "patent US20050153948A1",
  "about": "“Methods and formulations for the treatment of medical conditions related to elevated dihydrotestosterone” (Zomanex, LLC, priority 2003, published 2005)",
  "origin": "cited, not measured here",
  "key": {"[1]": {"details": "aqueous sterol/lecithin formulation, deuterated compounds, humans"}, "Type I human reductase": {"biological_target": "T1, Type I human reductase (Homo sapiens, UniProt P18405)", "T1 sequence (P18405 1-259)": "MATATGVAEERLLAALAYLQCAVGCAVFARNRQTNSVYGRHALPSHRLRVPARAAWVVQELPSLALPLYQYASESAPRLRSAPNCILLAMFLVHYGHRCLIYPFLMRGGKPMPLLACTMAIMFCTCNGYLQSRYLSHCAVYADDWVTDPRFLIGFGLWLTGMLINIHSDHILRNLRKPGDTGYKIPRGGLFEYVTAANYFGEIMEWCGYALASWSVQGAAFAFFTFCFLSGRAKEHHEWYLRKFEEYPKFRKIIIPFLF", "details": "Type I human 5α-reductase; read-out: K1 for Type I human reductase"}, "[2]": {"biological_target": "T2, type II enzyme (5α-reductase) (Homo sapiens, UniProt P31213)", "T2 sequence (P31213 1-254)": "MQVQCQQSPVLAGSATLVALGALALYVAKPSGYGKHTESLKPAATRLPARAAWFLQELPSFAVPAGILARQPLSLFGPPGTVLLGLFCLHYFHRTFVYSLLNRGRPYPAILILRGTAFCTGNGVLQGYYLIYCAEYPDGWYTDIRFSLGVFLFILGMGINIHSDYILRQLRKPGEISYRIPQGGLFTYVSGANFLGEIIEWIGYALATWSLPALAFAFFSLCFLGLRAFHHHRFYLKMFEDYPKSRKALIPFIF", "details": "type II 5α-reductase; read-out: K1 for type II enzyme"}, "[3]": {"test_system": "prostate (benign prostatic hyperplasia)", "details": "long-term use; reduced from about 10 percent"}, "prostate cancer": {"test_system": "prostate cancer", "details": "5 mg per day, seven-year trial; placebo group 24.4 percent"}, "circulating serum DHT": {"test_system": "circulating serum DHT", "details": "two clinical trials"}},
  "data": [
    {"smiles": "CC[C@H](CC[C@@H](C)[C@H]1CC[C@H]2[C@@H]3CC=C4C[C@@H](O)CC[C@]4(C)[C@H]3CC[C@]12C)C(C)C", "note": "[sitosterol]", "values": [
      {"measurement": "absorption relative to reduced derivatives sitostanol and campestanol", "setting": "[1]", "value": "about ten"}
    ]},
    {"smiles": "CC(C)(C)NC(=O)[C@H]1CC[C@H]2[C@@H]3CC[C@H]4NC(=O)C=C[C@]4(C)[C@H]3CC[C@]12C", "note": "[finasteride]", "values": [
      {"measurement": "Ki", "setting": "Type I human reductase", "value": 325, "unit": "nM"},
      {"measurement": "Ki", "setting": "[2]", "value": 12, "unit": "nM"},
      {"measurement": "need for surgical intervention for BPH", "setting": "[3]", "value": 5, "unit": "%"},
      {"measurement": "cumulative incidence of cancer", "setting": "prostate cancer", "value": 18.4, "unit": "%"},
      {"measurement": "reduction in circulating serum DHT", "setting": "circulating serum DHT", "value": 65, "unit": "%"}
    ]},
    {"smiles": "CC(C)[C@H](C)CC[C@@H](C)[C@H]1CC[C@H]2[C@@H]3CC=C4C[C@@H](O)CC[C@]4(C)[C@H]3CC[C@]12C", "note": "[campesterol]", "values": [
      {"measurement": "absorption relative to reduced derivatives sitostanol and campestanol", "setting": "[1]", "value": "about ten"}
    ]}
  ]
}
